By solubility is commonly meant the concentration that dissolves in the medium under given conditions. Higher therefore signals a readily soluble substance.

This note sets out measurements from patent US9363996B2, “Compositions and method for blocking ethylene response in field crops using 3-(cy-clopropyl-l-enyl)-propanoic salt” (Yissum Research Development Company of the Hebrew …, priority 2009, dated 2016).

The test system of one series is young cotton seedlings. Description: Ethylene-induced chlorophyll degradation in young cotton seedlings. The format is in vivo, cotton (Gossyium hirsutum barbadense L.). The following applies: for increase of chlorophyll content compared with the untreated control: ethylene 10 μL L^−1. The method, then: (1) Abscission-This is a very sensitive model system for studying the effects of plant hormones. Ethylene induces the process of abscission, while auxin delays it. In the laboratory the experimental system is based on plant organ explants, which include the abscission zone. Abscission is induced by exposure to ethylene and at the termination of the experiment the number of abscised organs, usually either leaf blades or petioles are counted and the fraction of abscission is calculated. In the case of fruit, the decrease in fruit retention force is analyzed. […] The plants or explants are then further exposed for 24 h to ethylene gas (5 to 20 μL L^-1). The plants or explants are then ventilated and incubated for the required time under controlled conditions. At the end of the experiment the percentage of abscission is determined. […] Plant material (whole plants, excised leaves or leaf discs) are pretreated. […] The plants or explants are then ventilated and incubated for the required time under controlled conditions. At the end of the experiment a dimethylsulfoxide (DMSO) extract of the plant tissue is prepared, and the chlorophyll content of the extract is determined by spectrophotometric analysis. The chlorophyll content is reported either on a fresh, dry weight basis, or on a surface area basis. (3) Epinasty-This is also one of the classical methods for studying ethylene effects in plants. The extent of ethylene-induced epinasty of leaves is determined by measuring the change of the angle between the petiole and the stem shoot or blade. After exposure of the intact plant to ethylene, the upright grown leaves bend downward. […] The plants are then ventilated and incubated for the required time under controlled conditions. The epinastic effect is expressed by measuring the degree values of the downward curvature between the blade and petiole (cotton, FIGS. 1-3) or between the blade and the stem (wheat, FIGS. 31 and 32). […] In this project the intact plants were grown in the greenhouse up to the spike […] stage I and II. […] Young Cotton Seedlings […] The content of chlorophyll in the leaf blades of the treated plants remained the same as in the untreated control (FIGS. 5 and 6).

In the next series the test system is tobacco seedlings. Description: Ethylene-induced chlorophyll degradation in tobacco seedling leaves. The format is in vivo, tobacco (Nicotiana tabacum var. 'Samsun'). The method, then:
(1) Abscission—This is a very sensitive model system for studying the effects of plant hormones. Ethylene induces the process of abscission, while auxin delays it. In the laboratory the experimental system is based on plant organ explants, which include the abscission zone. Abscission is induced by exposure to ethylene and at the termination of the experiment the number of abscised organs, usually either leaf blades or petioles are counted and the fraction of abscission is calculated. In the case of fruit, the decrease in fruit retention force is analyzed. In cotton, when WS-CPD (the ethylene-action antagonist herein disclosed) is tested, the whole plants or explants are pretreated by spraying with the antagonist, dissolved in a phosphate buffer solution (10-20 mM, pH 7.0) including 0.1% commercially available Kinetic™ as surfactant, and left to incubate for a predetermined time, usually between 6 and 24 h. The plants or explants are then further exposed for 24 h to ethylene gas (5 to 20 μL L^−1). The plants or explants are then ventilated and incubated for the required time under controlled conditions. At the end of the experiment the percentage of abscission is determined. (2) Chlorophyll degradation—This is a standard model for studying senescence. Plant material (whole plants, excised leaves or leaf discs) are pretreated. In cotton, tobacco and wheat, when WS-CPD is tested, the whole plants or explants are pretreated by spraying with the antagonist, dissolved in phosphate buffer solution (10-20 mM, pH 7.0) including 0.1% commercially available Kinetic™ surfactant, and left to incubate for a predetermined time, usually between 6 and 241. The plants or explants are then further exposed for 24 h to ethylene gas (1 to 100 μL L^−1), or sprayed with Ethephon™ (wheat; 250 to 750 μL L^−1). The plants or explants are then ventilated and incubated for the required time under controlled conditions. At the end of the experiment a dimethylsulfoxide (DMSO) extract of the plant tissue is prepared, and the chlorophyll content of the extract is determined by spectrophotometric analysis. The chlorophyll content is reported either on a fresh, dry weight basis, or on a surface area basis. (3) Epinasty—This is also one of the classical methods for studying ethylene effects in plants. The extent of ethylene-induced epinasty of leaves is determined by measuring the change of the angle between the petiole and the stem shoot or blade. After exposure of the intact plant to ethylene, the upright grown leaves bend downward. The increase in the angle values (degrees) between petiole and the stem is used as a measure of the effect of the ethylene. […]

In another series the test system is wheat plants. As to the kind of experiment: Wheat grain yield at harvest, greenhouse, sandy soil, natural conditions. The format is in vivo, wheat (Triticum turgidum var. 'Gdera').
The nature of the next series: Solubility in water. The note with it: 25° C. The format is physicochemical. The method, then: WS-CPD is highly soluble in water at 25° C. (≧400 mg mL^−1), FIG. 63. Upon heating, decomposition without melting occurs, beginning at 265-270° C.

Regarding `O=C([O-])CCC1=CC1.[Na+]` [WS-CPD, 3-cyclopropyl-1-enyl-propanoic sodium salt], the ethylene-induced chlorophyll degradation result was “completely antagonized” in the series with young cotton seedlings (WS-CPD 10 μg mL^−1 pretreatment, ethylene 10 μL L^−1 24 h); “less effective” with young cotton seedlings (higher concentrations of WS-CPD (up to 300 μg mL^−1)); “completely reversed” with tobacco seedlings (WS-CPD 14 μg mL^−1 pretreatment spray, young and mature leaves); “less effective” in the series on tobacco seedlings (higher concentrations of WS-CPD). Also, the “increase of chlorophyll content compared with the untreated control” value with young cotton seedlings (WS-CPD 30 μg L^−1 (so in the source)) is 20%; with young cotton seedlings (WS-CPD 100 μg L^−1 (so in the source)) it was 28%. For the same molecule, the “effect of repeating sprays after stage II on yield” value with wheat plants (WS-CPD 120 μg mL^−1, two to four sprays at 8 to 10 days intervals) is reported as “no advantage”. For the same molecule, the “grains weighting less than 35 mg/grain in the spikes of the treated plants” value with wheat plants (WS-CPD 120 μg mL^−1, untreated plants more than 30% below this weight) is “almost no grains”. Also, the total yield increase result with wheat plants (one spray WS-CPD 120 μg mL^−1 at milky stage I, dry grain at harvest) is reported as “ca. 18%”. The molecule further displayed a solubility in the series “Solubility in water” not below 400 mg/mL.
